Reference: PMC7470027, “Synthesis and structure-activity relationships of novel 5-(hydroxamic acid)methyl oxazolidinone derivatives as 5-lipoxygenase inhibitors” (Journal of Enzyme Inhibition and Medicinal Chemistry, 2020)

Tests used:
isolated human monocytes = assay: In vitro toxicity testing, MTT viability; type: cell-based; conditions: concentrations up to 50 μM, 3 h or 24 h
Method: Adherent human monocytes, prepared as described above were cultured with various concentrations of the test compounds or vehicle, or with 0.05% Triton-X as a positive control for 3 h or 24 h. At the end of the culture, cell viability was determined using the standard MTT assay method. Briefly, 15 μL of the MTT solution (5 mg/ml) was added to each well and incubated at 37 °C for 4 h. After removing the supernatant, 200 μL of DMSO was added to dissolve the crystals. Absorbance at 570 nm was then measured in a microplate reader. Viability was expressed as a percentage of the vehicle-treated cells.

[1] = system: 5-LO product LTC4 from allergen/IgE-activated bone marrow-derived mouse mast cells (BMMC); assay: Inhibition of 5-LO product LTC4 from allergen/IgE-activated bone marrow-derived mouse mast cells (BMMC); type: cell-based; conditions: Mus musculus; anti-DNP IgE/DNP-BSA-activated BMMC; 95% confidence interval in brackets; read-out: Mouse mast cell LTC4 IC50 (CI)
Method: Bone marrow-derived mast cells (BMMC) were generated from pathogen-free 5 to 7-weeks-old male Balb/c mice according to the method of Davis et al.[28]. Essentially, bone marrow cells were obtained by flushing the femoral bone marrow and the recovered cells cultured in RPMI 1640 medium supplemented with 10% FBS, 100 U/ml penicillin, and 100 µg/ml streptomycin, 25 mM HEPES, 1.0 mM sodium pyruvate, 0.1 mM nonessential amino acids, 0.0035% 2-mercaptoethanol, and 30 ng/ml mouse recombinant IL-3, with culture medium, replaced every 2 days. Cells were used after 4–8 weeks of culture, by which time at least 97% of the cells would have differentiated into mast cells, as routinely obtained in our laboratory.
The generated BMMCs were seeded at 5 × 10^4 cells/well in a 96-well flat-bottom culture plate and passively sensitised overnight with 0.5 µg/ml anti-DNP monoclonal IgE antibody. The cells were then washed twice to remove any unbound antibody and subsequently resuspended in reaction buffer (135 mM NaCl, 5 mM KCl, 1.8 mM CaCl2, 1 mM MgCl2, 5.6 mM glucose, 0.05% BSA and 20 mM HEPES, pH 7.4). They were then pre-incubated with the test compounds (0.001 − 30 μM) or the solvent (0.05% DMSO) for 15 min before being stimulated with the specific antigen, DNP-BSA (10–30 ng/ml). After 30 min incubation at 37 °C, the amount of LTC4 released into the supernatant was determined by ELISA as described below.
Appropriately diluted supernatants were assayed for the released products – LTs (LTB4 and LTC4), by the enzyme immunoassay (EIA) method using assay kits supplied by R&D Systems (Minneapolis, MN) and following the manufacturer’s instructions.
(§1) All data were analysed using GraphPad Prism software (GraphPad Software, San Diego, CA). […] Differences between experimental groups were first analysed by one-way ANOVA, followed by Bonferroni’s post-hoc test. A p-value of less than 0.05 was taken as statistically significant.

recombinant human 5-LO = target: T1, recombinant human 5-LO (Homo sapiens, UniProt P09917); assay: Direct inhibition of 5-LO activity in a cell-free assay (H2DCF-DA fluorescence); type: biochemical; conditions: cell-free, recombinant human 5-LO; 95% confidence interval in brackets
T1 sequence (P09917 1-674): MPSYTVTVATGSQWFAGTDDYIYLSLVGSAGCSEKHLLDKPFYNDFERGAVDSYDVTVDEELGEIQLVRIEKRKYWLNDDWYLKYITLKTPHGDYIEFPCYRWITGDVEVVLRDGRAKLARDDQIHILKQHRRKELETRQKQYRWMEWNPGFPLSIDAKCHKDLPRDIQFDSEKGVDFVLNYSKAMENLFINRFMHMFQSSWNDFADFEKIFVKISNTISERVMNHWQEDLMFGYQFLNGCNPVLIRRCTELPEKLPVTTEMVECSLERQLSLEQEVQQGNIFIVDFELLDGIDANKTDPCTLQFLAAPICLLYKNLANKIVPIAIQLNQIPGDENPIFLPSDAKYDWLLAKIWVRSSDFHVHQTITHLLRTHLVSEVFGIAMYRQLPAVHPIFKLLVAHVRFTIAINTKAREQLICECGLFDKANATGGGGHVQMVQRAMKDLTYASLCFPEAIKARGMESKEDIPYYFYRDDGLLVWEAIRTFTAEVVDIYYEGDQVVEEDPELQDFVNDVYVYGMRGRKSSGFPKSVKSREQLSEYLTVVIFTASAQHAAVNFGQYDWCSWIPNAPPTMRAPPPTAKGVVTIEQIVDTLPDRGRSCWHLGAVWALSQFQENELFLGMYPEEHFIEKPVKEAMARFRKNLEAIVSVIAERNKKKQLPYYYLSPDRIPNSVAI
Method: The assay was based on the oxidation of the dye 2′,7′-dichlorodihydrofluorescein diacetate (H2DCF-DA) to a highly fluorescent product by 5-LO enzymatic products. H2DCF-DA (60 µM) was first pre-cleaved by incubating with 450 mU/ml recombinant human 5-LO enzyme in Tris buffer (containing 50 mM Tris, pH = 7.5, 2 mM EDTA, 2 mM CaCl2, 1 mM DTT and 0.6 U/ml glutathione peroxidase) for 10 min at room temperature. […] After 10 min incubation at room temperature, the reaction was started with the addition of 50 µl of substrate solution (Tris buffer containing 20 µM ATP and 20 µM arachidonic acid (AA). After a further 20 min, the reaction was terminated with 100 µl acetonitrile. Fluorescence was read at 500 nm excitation and 520 nm emission, with Novostar^R microplate reader (BMG Labtech, Offenburg, Germany). Appropriate controls, including 100 µM nordihydroguaiaretic acid (NDGA), were included to isolate only the 5-LO-attributable, NDGA-inhibitable RFU values.
as §1

IC50 [1]: 1.3 µM
IC50 (recombinant human 5-LO): 1.9 µM
SMILES: CCCCCCC(=O)N(O)C[C@H]1CN(c2ccc(N3CCOCC3)c(F)c2)C(=O)O1 [PH-249, (R)-N-((3-(3-fluoro-4-morpholinophenyl)-2-oxooxazolidin-5-yl)methyl)-N-hydroxyheptanamide]
Effect on viability of isolated human monocytes (MTT) (isolated human monocytes): no significant effect on cell viability
